The subject of this data set is CCRIS mutagenicity, Ames/micronucleus/aberration tests. In words: CCRIS mutagenicity studies.
The mark [1] stands for this setting: Test System: AMES SALMONELLA TYPHIMURIUM, Strain/Indicator: TA97, Metabolic Activation: HAMSTER, LIVER, S-9, AROCLOR 1254 (10 OR 30%), Method: PREINCUBATION
Setting [2] is: Test System: AMES SALMONELLA TYPHIMURIUM, Strain/Indicator: TA97, Metabolic Activation: NONE, Method: PREINCUBATION
[3] abbreviates: Test System: AMES SALMONELLA TYPHIMURIUM, Strain/Indicator: TA97, Metabolic Activation: RAT, LIVER, S-9, AROCLOR 1254 (10 OR 30%), Method: PREINCUBATION
Where [4] appears, read: Test System: AMES SALMONELLA TYPHIMURIUM, Strain/Indicator: TA98, Metabolic Activation: HAMSTER, LIVER, S-9, AROCLOR 1254 (10 OR 30%), Method: PREINCUBATION
[5] abbreviates: Test System: AMES SALMONELLA TYPHIMURIUM, Strain/Indicator: TA98, Metabolic Activation: NONE, Method: PREINCUBATION
Setting [6] is: Test System: AMES SALMONELLA TYPHIMURIUM, Strain/Indicator: TA98, Metabolic Activation: RAT, LIVER, S-9, AROCLOR 1254 (10 OR 30%), Method: PREINCUBATION
Setting [7] is: Test System: AMES SALMONELLA TYPHIMURIUM, Strain/Indicator: TA100, Metabolic Activation: HAMSTER, LIVER, S-9, AROCLOR 1254 (10 OR 30%), Method: PREINCUBATION
Where [8] appears, read: Test System: AMES SALMONELLA TYPHIMURIUM, Strain/Indicator: TA100, Metabolic Activation: NONE, Method: PREINCUBATION
The mark [9] stands for this setting: Test System: AMES SALMONELLA TYPHIMURIUM, Strain/Indicator: TA100, Metabolic Activation: RAT, LIVER, S-9, AROCLOR 1254 (10 OR 30%), Method: PREINCUBATION
Setting [10] is: Test System: AMES SALMONELLA TYPHIMURIUM, Strain/Indicator: TA1535, Metabolic Activation: HAMSTER, LIVER, S-9, AROCLOR 1254 (10 OR 30%), Method: PREINCUBATION
Where [11] appears, read: Test System: AMES SALMONELLA TYPHIMURIUM, Strain/Indicator: TA1535, Metabolic Activation: NONE, Method: PREINCUBATION
The mark [12] stands for this setting: Test System: AMES SALMONELLA TYPHIMURIUM, Strain/Indicator: TA1535, Metabolic Activation: RAT, LIVER, S-9, AROCLOR 1254 (10 OR 30%), Method: PREINCUBATION

Activity calls are given as the source filed them. How the calls were made is not given here.

In the case of `CNC(=O)Nc1ccccc1`, the mutagenic call is, setting by setting: (Test System: AMES SALMONELLA TYPHIMURIUM, Strain/Indicator: TA98, Metabolic Activation: NONE, Method: STANDARD PLATE) “inactive; negative”; (Test System: AMES SALMONELLA TYPHIMURIUM, Strain/Indicator: TA98, Metabolic Activation: RAT, LIVER, S-9, AROCLOR 1254, Method: STANDARD PLATE) “inactive; negative”; (Test System: AMES SALMONELLA TYPHIMURIUM, Strain/Indicator: TA100, Metabolic Activation: NONE, Method: STANDARD PLATE) “inactive; negative”; (Test System: AMES SALMONELLA TYPHIMURIUM, Strain/Indicator: TA100, Metabolic Activation: RAT, LIVER, S-9, AROCLOR 1254, Method: STANDARD PLATE) “inactive; negative”; (Test System: AMES SALMONELLA TYPHIMURIUM, Strain/Indicator: TA1535, Metabolic Activation: NONE, Method: STANDARD PLATE) “inactive; negative”; (Test System: AMES SALMONELLA TYPHIMURIUM, Strain/Indicator: TA1535, Metabolic Activation: RAT, LIVER, S-9, AROCLOR 1254, Method: STANDARD PLATE) “inactive; negative”. Further, the mutagenic call is “inactive; negative” (Test System: AMES SALMONELLA TYPHIMURIUM, Strain/Indicator: TA1537, Metabolic Activation: NONE, Method: STANDARD PLATE); “inactive; negative” (Test System: AMES SALMONELLA TYPHIMURIUM, Strain/Indicator: TA1537, Metabolic Activation: RAT, LIVER, S-9, AROCLOR 1254, Method: STANDARD PLATE); “inactive; negative” (Test System: AMES SALMONELLA TYPHIMURIUM, Strain/Indicator: TA1538, Metabolic Activation: NONE, Method: STANDARD PLATE); “inactive; negative” (Test System: AMES SALMONELLA TYPHIMURIUM, Strain/Indicator: TA1538, Metabolic Activation: RAT, LIVER, S-9, AROCLOR 1254, Method: STANDARD PLATE).

For the compound `CCC#N`, the mutagenic call was “inactive; negative” (End Point: IN VITRO CHROMOSOMAL ABERRATIONS, Test System: CHO-LB CELLS, Metabolic Activation: NONE); “inactive; negative” (End Point: IN VITRO CHROMOSOMAL ABERRATIONS, Test System: CHO-LB CELLS, Metabolic Activation: RAT, LIVER, S-9, AROCLOR 1254); “inactive; negative” under setting [1]; “inactive; negative” under setting [2]; “inactive; negative” under setting [3]; “inactive; negative” under setting [4]. The mutagenic call is, setting by setting: under setting [5], “inactive; negative”; under setting [6], “inactive; negative”; under setting [7], “inactive; negative”; under setting [8], “inactive; negative”; under setting [9], “inactive; negative”; under setting [10], “inactive; negative”. Moreover, the mutagenic call is, setting by setting: under setting [11], “inactive; negative”; under setting [12], “inactive; negative”.

Turning to `CCC(=O)O`, the mutagenic call was “inactive; negative” under setting [1]; “inactive; negative” under setting [2]; “inactive; negative” under setting [3]; “inactive; negative” (Test System: AMES SALMONELLA TYPHIMURIUM, Strain/Indicator: TA97A, Metabolic Activation: NONE, Method: PREINCUBATION); “inactive; negative” (Test System: AMES SALMONELLA TYPHIMURIUM, Strain/Indicator: TA97A, Metabolic Activation: RAT, LIVER, S-9, AROCLOR 1254, Method: PREINCUBATION); “inactive; negative” under setting [4]. Moreover, the mutagenic call under setting [5] is “inactive; negative”; the mutagenic call (Test System: AMES SALMONELLA TYPHIMURIUM, Strain/Indicator: TA98, Metabolic Activation: RAT LIVER S-9, PHENOBARBITAL AND BETA-NAPHTHOFLAVONE, Method: PREINCUBATION) was “inactive; negative”; the mutagenic call under setting [6] was “inactive; negative”; the mutagenic call under setting [7] is “inactive; negative”; the mutagenic call under setting [8] was “inactive; negative”; the mutagenic call (Test System: AMES SALMONELLA TYPHIMURIUM, Strain/Indicator: TA100, Metabolic Activation: RAT LIVER S-9, PHENOBARBITAL AND BETA-NAPHTHOFLAVONE, Method: PREINCUBATION) is “inactive; negative”. The mutagenic call was “inactive; negative” under setting [9]; “inactive; negative” (Test System: AMES SALMONELLA TYPHIMURIUM, Strain/Indicator: TA102, Metabolic Activation: NONE, Method: PREINCUBATION); “inactive; negative” (Test System: AMES SALMONELLA TYPHIMURIUM, Strain/Indicator: TA102, Metabolic Activation: RAT, LIVER, S-9, AROCLOR 1254, Method: PREINCUBATION); “inactive; negative” under setting [10]; “inactive; negative” under setting [11]; “inactive; negative” (Test System: AMES SALMONELLA TYPHIMURIUM, Strain/Indicator: TA1535, Metabolic Activation: RAT LIVER S-9, PHENOBARBITAL AND BETA-NAPHTHOFLAVONE, Method: PREINCUBATION). The mutagenic call is “inactive; negative” under setting [12]; “inactive; negative” (Test System: AMES SALMONELLA TYPHIMURIUM, Strain/Indicator: TA1537, Metabolic Activation: HAMSTER, LIVER, S-9, AROCLOR 1254 (30%), Method: PREINCUBATION); “inactive; negative” (Test System: AMES SALMONELLA TYPHIMURIUM, Strain/Indicator: TA1537, Metabolic Activation: NONE, Method: PREINCUBATION); “inactive; negative” (Test System: AMES SALMONELLA TYPHIMURIUM, Strain/Indicator: TA1537, Metabolic Activation: RAT LIVER S-9, PHENOBARBITAL AND BETA-NAPHTHOFLAVONE, Method: PREINCUBATION); “inactive; negative” (Test System: AMES SALMONELLA TYPHIMURIUM, Strain/Indicator: TA1537, Metabolic Activation: RAT, LIVER, S-9, AROCLOR 1254 (30%), Method: PREINCUBATION); “inactive; negative” (Test System: E.COLI, Strain/Indicator: WP2UVRA/PKM101, Metabolic Activation: NONE, Method: PREINCUBATION). For the same compound, for the setting “Test System: E.COLI, Strain/Indicator: WP2UVRA/PKM101, Metabolic Activation: RAT LIVER S-9, PHENOBARBITAL AND BETA-NAPHTHOFLAVONE, Method: PREINCUBATION”, the mutagenic call is “inactive; negative”.

On to `Nc1ncnc2c1nc(Cl)n2[C@@H]1O[C@@H]2COP(=O)(O)O[C@H]2[C@H]1O`, for which the mutagenic call (End Point: IN VIVO CHROMOSOMAL ABERRATIONS, Test System: BONE MARROW, Species: MOUSE, Strain/Sex: BALB/C, Route: IP) is “active; positive (structural and ploidy changes)”; the mutagenic call (End Point: IN VIVO MICRONUCLEUS, Test System: BONE MARROW, Species: MOUSE, Strain/Sex: BALB/C, Route: IP) was “active; positive”; the mutagenic call (Test System: MOUSE LYMPHOMA, Strain/Indicator: L5178Y (TK+/TK-), Metabolic Activation: NONE, Method: SUSPENSION/PLATE) was “inactive; negative. reevaluation of results: negative”; the mutagenic call (Test System: MOUSE LYMPHOMA, Strain/Indicator: L5178Y (TK+/TK-), Metabolic Activation: RAT, LIVER, S-9, AROCLOR 1254, Method: SUSPENSION/PLATE) is “inactive; negative. reevaluation of results: negative”.

Source of the values: PubChem BioAssay AID1259407 (Chemical Carcinogenesis Research Information System (CCRIS), 2018).
